According to EP0415924B1, “REGULATION OF CELL PROLIFERATION AND DIFFERENTIATION USING PEPTIDES” (HOLICK, Michael F, priority 1987, dated 1996):

Key:
[1] = test system: cultured human keratinocytes; assay: Keratinocyte differentiation: count of cornified envelopes after one week of dosing; assay type: cell-based; conditions: dose-dependent, relative to control cultures, Figures 6 and 7
Description: Keratinocytes were grown in culture as follows. NIH 3T3 cells were plated at 0.5 x 10⁵ cells per 35-mm tissue-culture dish, and two days later were lethally irradiated with a cobalt-60 source (5000 rads). Keratinocytes were obtained from neonatal foreskin after overnight trypsinization at 4°C and treatment with 0.02% EDTA. Keratinocytes were plated in 2 ml of serum-free medium per dish on the lethally irradiated 3T3 cells. Each experiment was performed on primary or secondary keratinocyte cultures obtained from different skin samples. The serum-free medium consisted of Dulbecco's Modified Eagle's Medium (DMEM) with high (1.8 mM) concentration of calcium (M.A. Bioproducts, Walkersville, MD) containing 7 growth factors: epidermal growth factor (25 ng/ml); hydrocortisone (203 ng/ml); insulin (5 µg/ml); prostaglandin E₁ (50 ng/ml); transferrin (5 µg/ml; prostaglandin E₁ (50 ng/ml); cholera toxin (0.1 µg/ml); (Sigma Chemical Co., St. Louis, MO); and selenous acid (2 ng/ml) (Collaborative Research, Lexington, MA). At one week in culture, hydrocortisone and cholera toxin were removed from the medium, and the dishes were washed with 0.02% EDTA to remove any remaining 3T3 cells.
In addition, 1,25-(OH)₂D₃ was tested, alone and in combination with PTH (7-34), and PTH (1-34) and PTH (7-34) were tested together. […]

[2] = test system: cultured human keratinocytes; assay: Keratinocyte culture: counts of total cells and basal cells after one week of dosing; assay type: cell-based; conditions: seven days, dose-dependent, Figures 2-5
Description: Keratinocytes were grown in culture as follows. NIH 3T3 cells were plated at 0.5 x 10⁵ cells per 35-mm tissue-culture dish, and two days later were lethally irradiated with a cobalt-60 source (5000 rads). Keratinocytes were obtained from neonatal foreskin after overnight trypsinization at 4°C and treatment with 0.02% EDTA. Keratinocytes were plated in 2 ml of serum-free medium per dish on the lethally irradiated 3T3 cells. Each experiment was performed on primary or secondary keratinocyte cultures obtained from different skin samples. The serum-free medium consisted of Dulbecco's Modified Eagle's Medium (DMEM) with high (1.8 mM) concentration of calcium (M.A. Bioproducts, Walkersville, MD) containing 7 growth factors: epidermal growth factor (25 ng/ml); hydrocortisone (203 ng/ml); insulin (5 µg/ml); prostaglandin E₁ (50 ng/ml); transferrin (5 µg/ml; prostaglandin E₁ (50 ng/ml); cholera toxin (0.1 µg/ml); (Sigma Chemical Co., St. Louis, MO); and selenous acid (2 ng/ml) (Collaborative Research, Lexington, MA). At one week in culture, hydrocortisone and cholera toxin were removed from the medium, and the dishes were washed with 0.02% EDTA to remove any remaining 3T3 cells. […]
After seven days the cultures were evaluated for their total cell content, number of basal cells, and cornified envelopes as described above. […]

[3] = test system: canine adenylate cyclase system; conditions: cited from earlier work

Row | Compound | total number of cornified envelopes (percent of control) [1] | total number of cells and the number of basal cells in the cultures [2] | activity relative to bovine PTH (1-34) ([3]; more active than bovine PTH (1-34)) | activity relative to human PTH (1-34) ([3]; more active than human PTH (1-34))
1 | C=C1/C(=C\C=C2/CCC[C@]3(C)[C@@H]([C@H](C)CCCC(C)(C)O)CC[C@@H]23)C[C@@H](O)C[C@@H]1O [1,25(OH)₂D₃, 1,25-dihydroxyvitamin D₃] | increased, in a dose-dependent manner | in a dose-dependent manner decreased |  | 
2 | Rat PTH (1-34): rat PTH 1-34 fragment, 5 amino acid sequence difference from the 1-34 region of human and bovine PTH |  |  | 2-4 fold | 8-10 fold
